# Source: US9464055B2, “Quinoline derivatives useful as CB-1 inverse agonists” (JANSSEN PHARMACEUTICA NV, priority 2014, dated 2016)
# How the values were obtained:
# [1] = biological target: T1, Human CB1R (Cannabinoid receptor 1) (Homo sapiens, UniProt P21554); assay: CB-1 in vitro cAMP (HTRF) functional assay; type: cell-based; conditions: mean where tested more than once
# T1 construct: host or cells: HEK-293
# Source text: (§1) CB1 and CB2 receptors are Gi-coupled GPCR. Activation of CB1 and CB2 receptors results in a decrease in cAMP production. An inverse agonist of the CB1 or CB2 receptor results in the opposite effect, an increase of cAMP production. The principle of this assay is based on HTRF® technology (Homogeneous Time-Resolved Fluorescence). The method is a competitive immunoassay between native cAMP produced by cells and the cAMP labeled with the fluorophore d2. The tracer binding is quantified by a Mab anti-cAMP labeled with Eu3+ TBP-NHS Cryptate (supplied as part of the assay kit). The specific signal (i.e. energy transfer) is inversely proportional to the concentration of cAMP in the standard or sample.
# (§2) Human CB1R (Cannabinoid receptor 1) was stably transfected in HEK-293 cells (DiscoveRx, cat: 93-0200C1). Human CB2R (Cannabinoid receptor 2) was stably transfected in HEK-293 cells (DiscoveRx, cat: 93-0201C1). Cell cultures were maintained in media: DMEM (Invitrogen Cat#12430-054) supplemented with 10% HI FBS (Invitrogen Cat#16140-071), 1% L-glutamine (Invitrogen Cat#25030-081), 0.2 mg/ml Hygromycin B (Invitrogen Cat#10687-010), 600 μg/mL G418 (Invitrogen Cat#10131-035), and 1× Penn/Strep (Invitrogen 15140-122). After cell expansion, aliquots were cryo-stored in media containing 5% DMSO (Pierce Cat#20684).
# (§3) One day prior to experiments media was warmed to 37° C. and the cryo-stored cells were thawed in a 37° C. water bath. The cells were then added to media (10× volume) and the mixture was centrifuged at 1000 RPM for 5 min. The supernate was removed and the cells were re-suspended in media. A sample of the cell suspension was evaluated on a Cedex XS automated cell counter (Innovatis Systems) to determine viable cells/ml. Additional media was added to the cells to achieve a final cell density of 4E5 cells/mL. The cells were then plated into 384 well PDL white solid bottom plates (Greiner, Cat#781945) at 20 μL per well using a Multidrop (Thermo Scientific). Cells were removed from Row P (location of cAMP standards). Two columns of cells were plated into a clear bottom 384 well PDL coated plate (Greiner, Cat#781944) to view confluence the day of the assay. The cell plates were lidded and stored for 15 minutes in a hood, then transferred to an incubator (37° C., 5% CO2, 95% humidity) overnight.
# (§4) DMSO was added to all wells of 384 well V bottom polystyrene plate (Greiner, Cat#781280) except to columns 1 and 13, rows O and P and wells M13-M23 and N13-N23. Test compounds (60 μL, 10 mM) were added to Column 1 and 13 (A1 through N1 and A13 through L13). Test compounds were serially diluted 1/3 by transferring and mixing 20 μl sample with 40 μL DMSO.
# (§5) DMSO (40 μL) was added to wells of 384 well V bottom polystyrene plate: O2 through O11, M14 through M23, N14 through N23, and O14 through O23. AM630 (also known as [6-iodo-2-methyl-1-[2-(4-morpholinyl)ethyl]-1H-indol-3-yl](4-methoxyphenyl)-methanone, Cayman Chemical, Cat#10006974) (60 μL, 10 mM) was added to O1; and 1-(2,4-dichlorophenyl)-7-[(4-fluorophenyl)methylene]-4,5,6,7-tetrahydro-N-1-piperidinyl-1H-indazole-3-carboxamide (60 μL, 10 mM) was added to N13. The control was serially diluted 1/3 by transferring and mixing 20 μl sample with 40 μL DMSO. This process resulted 11 doses per control, 10 mM to […].
# (§6) Cells plated the day prior to the assay in clear bottom plates were viewed on an inverse microscope to ensure confluency in the range of 60-75%. […]
# [2] = biological target: T2, Human CB2R (Cannabinoid receptor 2) (Homo sapiens, UniProt P34972); assay: CB-2 in vitro cAMP (HTRF) functional assay; type: cell-based; conditions: mean where tested more than once
# T2 construct: host or cells: HEK-293
# T2 sequence (P34972 whole entry): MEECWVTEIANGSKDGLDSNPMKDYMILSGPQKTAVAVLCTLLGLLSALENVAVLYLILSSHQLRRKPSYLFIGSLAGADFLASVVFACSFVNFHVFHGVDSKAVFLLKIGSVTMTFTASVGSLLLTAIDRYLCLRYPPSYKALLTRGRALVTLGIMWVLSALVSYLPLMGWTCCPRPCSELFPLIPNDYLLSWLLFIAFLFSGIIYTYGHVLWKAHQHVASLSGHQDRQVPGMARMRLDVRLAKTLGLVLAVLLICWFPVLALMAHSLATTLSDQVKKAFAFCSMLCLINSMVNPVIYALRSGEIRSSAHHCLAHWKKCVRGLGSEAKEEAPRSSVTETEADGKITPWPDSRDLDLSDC
# Source text: as §1, §2, §3, §4, §5, §6
# [3] = biological target: hCB1-CHO-K1 membranes (Homo sapiens, UniProt P21554); assay: CB-1 membrane binding assay ([3H] CP 55,940 displacement)
# hCB1-CHO-K1 membranes, sequence (P21554 whole entry): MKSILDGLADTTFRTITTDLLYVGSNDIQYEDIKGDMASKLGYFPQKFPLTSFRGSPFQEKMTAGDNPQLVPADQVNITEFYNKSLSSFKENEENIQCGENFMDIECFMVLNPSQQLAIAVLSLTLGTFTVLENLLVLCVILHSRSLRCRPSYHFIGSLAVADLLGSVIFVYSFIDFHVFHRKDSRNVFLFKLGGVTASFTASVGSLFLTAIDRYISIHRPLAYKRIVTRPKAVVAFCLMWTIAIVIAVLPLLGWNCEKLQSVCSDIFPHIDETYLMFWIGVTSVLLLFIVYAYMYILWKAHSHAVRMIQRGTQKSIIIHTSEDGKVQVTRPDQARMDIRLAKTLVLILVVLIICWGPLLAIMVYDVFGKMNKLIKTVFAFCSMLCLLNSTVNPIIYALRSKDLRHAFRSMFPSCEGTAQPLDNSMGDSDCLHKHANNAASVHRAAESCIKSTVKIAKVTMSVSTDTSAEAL
# [4] = biological target: T3, hCB2-HEK293 membranes (Homo sapiens, UniProt P34972); assay: CB-2 membrane binding assay ([3H] CP 55,940 displacement); conditions: mean where tested more than once
# T3 construct: expressed in transfected cells; host or cells: HEK293
# T3 sequence (P34972 whole entry): as the sequence (P34972 whole entry) above
# T1 sequence (P21554 whole entry): as the sequence (P21554 whole entry) above
EC50 [2] [nM],IC50 [3] [nM],SMILES,also measured
> 10000,–,"O=C(O)CCN1CCC(Nc2cc(=O)[nH]c3ccc(C(c4ccc(Cl)cc4)c4ccc(Cl)cc4)cc23)CC1 [Compound 115, 3-[4-({6-[Bis(4-chlorophenyl)methyl]-2-oxo-1,2-dihydroquinolin-4-yl}amino)piperidin-1-yl]propanoic acid]",EC50 [1]: > 10000 nM
> 10000,–,"O=C(O)c1ccc(Nc2cc(=O)[nH]c3ccc(C(c4ccc(Cl)cc4)c4ccc(Cl)cc4)cc23)cc1 [Compound 86, 4-({6-[Bis(4-chlorophenyl)methyl]-2-oxo-1,2-dihydroquinolin-4-yl}amino)benzoic acid]",EC50 [1]: > 10000 nM
–,4.1,"Clc1ccc(C(c2ccc(Cl)cc2)c2ccc3nccc(/C=C/c4ccccc4)c3c2)cc1 [Compound 503, (E)-6-(bis(4-chlorophenyl)methyl)-4-styrylquinoline]",–
–,101,"OC(c1ccc(Cl)cc1)(c1ccc2nccc(/C=C/c3ccccc3)c2c1)c1cccs1 (stereo not drawn) [Compound 506, (4-Chlorophenyl){4-[(E)-2-phenylethenyl]quinolin-6-yl}thiophen-2-ylmethanol]",–
–,> 2500,"O=c1cc(CCc2cccc(Cl)c2)c2cc(C(O)(c3ccc(Cl)cc3)c3nccs3)ccc2[nH]1 (stereo not drawn) [Compound 8, 4-(3-chlorophenethyl)-6-((4-chlorophenyl)(hydroxy)(thiazol-2-yl)methyl)quinolin-2(1H)-one]",–
750,–,O=C(c1ccc(Nc2cc(=O)[nH]c3ccc(C(c4ccc(Cl)cc4)c4ccc(Cl)cc4)cc23)cc1F)N1CCCC1 [Compound 138],EC50 [1]: 227 nM
3400,–,CCOC(=O)COc1cc(C(c2ccc(Cl)cc2)c2ccc(Cl)cc2)cc2c(NC3CCN(S(=O)(=O)C(F)(F)F)CC3)ccnc12 [Compound 544],EC50 [1]: 126 nM
–,–,O=C(O)COc1cc(C(c2ccc(Cl)cc2)c2ccc(Cl)cc2)cc2c(NC3CCN(S(=O)(=O)C(F)(F)F)CC3)ccnc12 [Compound 545],EC50 [1]: 4900 nM
–,> 2500,"Cn1c(=O)cc(CCc2cccc(Cl)c2)c2cc(C(c3ccc(Cl)cc3)c3nccs3)ccc21 (stereo not drawn) [Compound 9, 4-(3-chlorophenethyl)-6-((4-chlorophenyl)(thiazol-2-yl)methyl)-1-methylquinolin-2(1H)-one]",–
–,4.4,"O=c1cc(NC2CCN(S(=O)(=O)C(F)(F)F)CC2)c2cc(C(c3ccc(Cl)cc3)c3nccs3)ccc2[nH]1 (stereo not drawn) [Compound #41, 6-((4-chlorophenyl)(thiazol-2-yl)methyl)-4-((1-((trifluoromethyl)sulfonyl)piperidin-4-yl)amino)quinolin-2(1H)-one]",IC50 [4]: > 5000 nM
–,34.6,"O=c1cc(/C=C/c2ccccc2)c2cc(C(c3ccc(Cl)cc3)c3nccs3)ccc2[nH]1 (stereo not drawn) [Compound 25, (E)-6-((4-chlorophenyl)(thiazol-2-yl)methyl)-4-styrylquinolin-2(1H)-one]",IC50 [4]: > 5000 nM
–,223,"OC(c1ccc(Cl)cc1)(c1ccsc1)c1ccc2nccc(/C=C/c3ccccc3)c2c1 (stereo not drawn) [Compound 507, (4-Chlorophenyl){4-[(E)-2-phenylethenyl]quinolin-6-yl}thiophen-3-ylmethanol]",–
–,22,"O=c1cc(/C=C/c2cccc(F)c2)c2cc(C(c3ccc(Cl)cc3)c3ccsc3)ccc2[nH]1 (stereo not drawn) [Compound 16, 6-[(4-Chlorophenyl)(thiophen-3-yl)methyl]-4-[(E)-2-(3-fluorophenyl)ethenyl]quinolin-2(1H)-one]",IC50 [4]: > 5000 nM
> 10000,–,"NC(=O)CCC(=O)N1CCC(Nc2cc(=O)[nH]c3ccc(C(c4ccc(Cl)cc4)c4ccc(Cl)cc4)cc23)CC1 [Compound 112, 4-[4-({6-[Bis(4-chlorophenyl)methyl]-2-oxo-1,2-dihydroquinolin-4-yl}amino)piperidin-1-yl]-4-oxobutanamide]",–
> 10000,–,"NCCCCNc1cc(C(c2ccc(Cl)cc2)c2ccc(Cl)cc2)cc2c(NC3CCN(S(=O)(=O)C(F)(F)F)CC3)cc(=O)[nH]c12 [Compound 141, 8-((4-aminobutyl)amino)-6-(bis(4-chlorophenyl)methyl)-4-((1-((trifluoromethyl)sulfonyl)piperidin-4-yl)amino)quinolin-2(1H)-one]",–
–,332,"O=c1cc(CCc2cccc(Cl)c2)c2cc(C(c3ccc(Cl)cc3)c3nccs3)ccc2[nH]1 (stereo not drawn) [Compound 11, 4-(3-chlorophenethyl)-6-((4-chlorophenyl)(thiazol-2-yl)methyl)quinolin-2(1H)-one]",–
> 10000,–,"O=c1cc(NC2CCN(CC(F)(F)F)CC2)c2cc(C(c3ccc(Cl)cc3)c3ccc(Cl)cc3)ccc2[nH]1 [Compound #77, 6-(bis(4-chlorophenyl)methyl)-4-((1-(2,2,2-trifluoroethyl)piperidin-4-yl)amino)quinolin-2(1H)-one]",–
> 10000,–,"NC(=O)Cn1c(=O)cc(NC2CCN(S(=O)(=O)C(F)(F)F)CC2)c2cc(C(c3ccc(Cl)cc3)c3ccc(Cl)cc3)ccc21 [Compound #90, 2-(6-(bis(4-chlorophenyl)methyl)-2-oxo-4-((1-((trifluoromethyl)sulfonyl)piperidin-4-yl)amino)quinolin-1 (2H)-yl)acetamide]",–
–,52.1,"OC(c1ccc(Cl)cc1)(c1ccc(Cl)cc1)c1ccc2nccc(/C=C/c3ccccc3)c2c1 [Compound 501, (E)-bis(4-chlorophenyl)(4-styrylquinolin-6-yl)methanol]",–
–,1870,"COc1ccc(C(O)(c2ccc3nccc(/C=C/c4ccccc4)c3c2)c2nccs2)cc1 (stereo not drawn) [Compound 504, (E)-(4-methoxyphenyl)(4-styrylquinolin-6-yl)(thiazol-2-yl)methanol]",–
> 10000,–,"O=c1cc(NCc2ccc(C(F)(F)F)cn2)c2cc(C(c3ccc(Cl)cc3)c3ccc(Cl)cc3)ccc2[nH]1 [Compound 78, 6-[Bis(4-chlorophenyl)methyl]-4-({[5-(trifluoromethyl)pyridin-2-yl]methyl}amino)quinolin-2(1H)-one]",–
–,15.1,"O=c1cc(/C=C/c2ccc(C(F)(F)F)cc2)c2cc(C(c3ccc(Cl)cc3)c3cccs3)ccc2[nH]1 (stereo not drawn) [Compound 19, 6-[(4-Chlorophenyl)(thiophen-2-yl)methyl]-4-{(E)-2-[4-(trifluoromethyl)phenyl]ethenyl} quinolin-2(1H)-one]",IC50 [4]: > 5000 nM
> 10000,–,O=c1cc(Nc2ccc(C(F)(F)F)cc2)c2cc(C(c3ccc(Cl)cc3)c3ccc(Cl)cc3)cc(Br)c2[nH]1 [Compound 93],EC50 [1]: 15 nM
> 10000,–,"O=c1cc(NC2CCN(c3ccccc3)CC2)c2cc(C(c3ccc(Cl)cc3)c3ccc(Cl)cc3)ccc2[nH]1 [Compound #60, 6-[bis(4-chlorophenyl)methyl]-4-[(1-phenylpiperidin-4-yl)amino]quinolin-2-ol]",–
–,97.3,"Clc1ccc(C(c2ccc3nccc(/C=C/c4ccccc4)c3c2)c2cccs2)cc1 (stereo not drawn) [Compound 508, 6-[(4-Chlorophenyl)(thiophen-2-yl)methyl]-4-[(E)-2-phenylethenyl]quinoline]",–
> 10000,–,"O=c1cc(NC2CCCCC2)c2cc(C(c3ccc(Cl)cc3)c3ccc(Cl)cc3)ccc2[nH]1 [Compound #71, 6-(bis(4-chlorophenyl)methyl)-4-(cyclohexylamino)quinolin-2(1H)-one]",–
> 10000,–,"COC(=O)Cc1ccc(Nc2cc(=O)[nH]c3ccc(C(c4ccc(Cl)cc4)c4ccc(Cl)cc4)cc23)cc1 [Compound 124, Methyl [4-({6-[bis(4-chlorophenyl)methyl]-2-oxo-1,2-dihydroquinolin-4-yl}amino)phenyl]acetate]",–
